# How the values were obtained:
# [1] = test system: NPA'87 cells (papillary carcinoma); assay: Iodide uptake assay (specific 125I uptake), NPA'87; assay type: cell-based, human; conditions: for Specific ^125I Uptake: NPA'87
# Method: (§1) Cell lines, for evaluation of iodide-uptake and hNIS expression, were grown in phenol-red-free RPMI 1640 with 5% fetal bovine serum (FBS), 100 nM sodium selenite and 0.1 nM bovine TSH (basal medium) (20). They were plated at a density of 3–5×10^4 cells/9.4 cm^2, in triplicate in basal medium, and grown for 2–3 days at 37° C. in 5% CO2. They were treated with dimethylsulfoxide (DMSO, 25 μM daily for 3 days), sodium butyrate (0.5 or 1.0 mM), phenylacetate (pH 7.0, 5 or 10 mM) or 5-azacytidine (0.5 or 1.0 μM, in 25 μM DMSO, daily for 3 days) until control cells were 80% confluent (3–4 days), then changed to fresh basal medium and grown for an additional 24 hrs.
# (§2) Cell lines, treated with differentiation agents and control cultures, were washed with 2 mL of buffer containing: 10 mM HEPES ([…]), 5.5 mM glucose, 5.4 mM KCl, 1.3 mM CaCl2, 0.4 mM Na2HPO4, 0.44 mM KH2PO4, and either 137 mM NaCl (Buffer A) or 100 mM choline chloride (Buffer B). After a 60 min incubation in the same buffer supplemented with Na(^125I) (1.0 μCi/2 mL) and 1.0 μM NaI, cells were washed once with Buffer A, lysed with 0.1 M NaOH and gamma counted (5). A parallel set of dishes, similarly plated and treated, were used for normalization of uptake activity, using 3-(4,5-dimethylthiazol-2-yl)-2,5-diphenyltetrazolium bromide (MTT) assay (25) as an index of cell viability. Gamma counts of cells incubated in Buffer B were subtracted from counts of cells incubated in Buffer A, under corresponding conditions, to account for non-specific binding of radioiodide.
# [2] = test system: hNIS mRNA; assay: hNIS mRNA re-expression by RT-PCR in treated human thyroid cell lines; assay type: cell-based; conditions: for hNIS mRNA expression despite treatment: MRO87, WRO82 and KAT-7 cell lines
# Method: as §1
# (§3) Total RNA and genomic DNA from: normal human thyroid, thyroid tumors, and cell lines (treated with agents described above), were isolated by the acid-guanidinium-phenol-chloroform method (21). All surgical samples were snap-frozen and stored at −80° C. until processed by homogenization in Trizol reagent (Life Technologies, Gaithersburg, Md.) while still frozen. Complementary DNA (cDNA) was synthesized from 1.0 μg of total RNA using MMLV reverse transcriptase (RT) with random-hexamer primers (Clontech, Palo Alto, Calif.). Each 50 μL polymerase chain reaction (PCR) vessel contained: 60 mM Tris HCl, pH 9.0, 15 mM ammonium sulfate, 3.5 mM MgCl2 (1.5 mM for hTTF-1), 250 μM dNTPs (Boehringer-Mannheim, Indianapolis, Ind.), 0.2 μM each primer pair, 1 U AmpliTaq DNA polymerase (Perkin-Elmer, Norwalk, Conn.), 0.2 μg TaqStart Antibody (Clontech) and 3% cDNA. β-actin amplification (primers, Stratagene, La Jolla, Calif.) confirmed cDNA integrity, purity, and template equivalence for semiquantification. PCR primers (upstream 5′ to 3′/downstream 5′ to 3′, in all cases) used for amplification were, for hNIS (5), CTGCCCCAGACCAGTACAT GCC (SEQ ID NO. 1)/[…] (SEQ ID NO. 2) (to amplify a coding region spanning four introns (4) yielding a 303 bp product from cDNA) and for Pax-8, […] (SEQ ID NO. 3)/[…] (SEQ ID NO. 4)((22) to amplify a 329 bp product). Amplification conditions for hNIS and Pax-8 were: denaturation (95° C.×5 min); 40 cycles of 20 sec at 95° C. and 60 sec at 68° C.; followed by extension at 72° C. for 3 min. The hTTF-1 product was amplified with intron spanning primers, […] (SEQ ID NO. 5)/[…] (SEQ ID NO. 6), which amplify a 263 bp fragment. The conditions were: 95° C. for 5 min; 45 cycles of 95° C. for 20 sec, 60° C. for 60 sec, and 72° C. for 30 sec; followed by extension at 72° C. for 3 min. The RT-PCR products were resolved on 2% agarose gels and visualized by ethidium bromide staining.
# [3] = test system: KAT-5 cells (papillary carcinoma); assay: Iodide uptake assay (specific 125I uptake), KAT-5; assay type: cell-based, human
# Method: as §1, §2
# [4] = test system: TTF-1 mRNA; assay: TTF-1 mRNA expression by RT-PCR in treated cell lines; assay type: cell-based, human; conditions: for induction of TTF-1 mRNA expression: KAT-5 and KAT-10 (basal TTF-1 undetectable)
# Method: as §1, §3
# [5] = test system: KAT-10 cells (papillary carcinoma); assay: Iodide uptake assay (specific 125I uptake), KAT-10; assay type: cell-based, human
# Method: as §1, §2
# [6] = test system: Pax-8 mRNA; assay: Pax-8 mRNA expression by RT-PCR in treated cell lines; assay type: cell-based, human
# Method: as §1, §3
# [7] = test system: KAK-1 cells (benign follicular adenoma); assay: Iodide uptake assay (specific 125I uptake), KAK-1; assay type: cell-based, human; conditions: for Specific ^125I Uptake: KAK-1
# Method: as §1, §2
# [8] = high: AzaC 1.0 μM, NaB 1.0 mM, PhAc 10 mM
# [9] = low: AzaC 0.5 μM, NaB 0.5 mM, PhAc 5.0 mM
# [10] = KAK-1, high: AzaC 1.0 μM, NaB 1.0 mM, PhAc 10 mM
# [11] = KAK-1, low: AzaC 0.5 μM, NaB 0.5 mM, PhAc 5.0 mM
# [12] = KAT-5, high: AzaC 1.0 μM, NaB 1.0 mM, PhAc 10 mM
# [13] = KAT-5, low: AzaC 0.5 μM, NaB 0.5 mM, PhAc 5.0 mM
# [14] = KAT-10, low: AzaC 0.5 μM, NaB 0.5 mM, PhAc 5.0 mM
# [15] = NPA'87, high: AzaC 1.0 μM, NaB 1.0 mM, PhAc 10 mM
# [16] = NPA'87, low: AzaC 0.5 μM, NaB 0.5 mM, PhAc 5.0 mM
# [17] = KAT-5, high: AzaC 1.0 μM, PhAc 10 mM
# [18] = NPA'87, high: AzaC 1.0 μM, NaB 1.0 mM
SMILES,"Specific ^125I Uptake [1, 8]","Specific ^125I Uptake [1, 9]","hNIS mRNA [2, 10]","hNIS mRNA [2, 11]","hNIS mRNA [2, 12]","hNIS mRNA [2, 13]","hNIS mRNA [2, 14]",hNIS mRNA expression despite treatment [2],"hNIS mRNA [2, 15]","hNIS mRNA [2, 16]","Specific ^125I Uptake [3, 8]","Specific ^125I Uptake [3, 9]",induction of TTF-1 mRNA expression [4],"TTF-1 mRNA [4, 18]","Specific ^125I Uptake [5, 9]","Pax-8 mRNA [6, 18]","Specific ^125I Uptake [7, 8]","Specific ^125I Uptake [7, 9]",further results
"Nc1ncn([C@@H]2O[C@H](CO)[C@@H](O)[C@H]2O)c(=O)n1 [AzaC, 5-azacytidine]",+,−,+,+,+,−,+,failed to express hNIS mRNA,+,−,−,−,induced,+,−,+,+,−,"increased iodide uptake ([1]; NPA'87 cells, 1.0 M 5-azacytidine (so in the source)): over 15 fold; re-expression of hNIS mRNA, comparison of the two concentrations ([2]; KAK-1 cells, 0.5 μM vs 1.0 μM 5-azacytidine): comparable; TTF-1 mRNA ([4]; KAK-1, high: AzaC 1.0 μM): +; TTF-1 mRNA ([4]; KAK-1, low: AzaC 0.5 μM): +; TTF-1 mRNA [4, 17]: +; TTF-1 mRNA ([4]; KAT-10, low: AzaC 0.5 μM): +; Pax-8 mRNA ([6]; KAK-1, high: AzaC 1.0 μM): +; Pax-8 mRNA ([6]; KAK-1, low: AzaC 0.5 μM): +; Pax-8 mRNA [6, 17]: +; Pax-8 mRNA ([6]; KAT-10, low: AzaC 0.5 μM): +; enhancement of ^125I uptake ([7]; KAK-1 cells, 0.5 μM 5-azacytidine): no enhancement of uptake; increase in ^125I uptake as compared with untreated cells ([7]; KAK-1 cells, 1.0 μM 5-azacytidine): greater than two-fold"
"CCCC(=O)[O-].[Na+] [NaB, sodium butyrate]",−,−,−,−,−,−,−,failed to express hNIS mRNA,+,−,−,−,did not have such an effect in either of the cell lines,+,−,+,−,−,"iodide uptake activity ([1]; NPA'87 cells, 1.0 mM sodium butyrate): slightly increased; hNIS mRNA ([2]; KAT-10, high: NaB 1.0 mM, PhAc 10 mM): +; re-expression of hNIS mRNA ([2]; NPA'87 and KAT-10): re-expression of hNIS mRNA; TTF-1 mRNA ([4]; KAT-10, high: NaB 1.0 mM): −; Specific ^125I Uptake ([5]; high: NaB 1.0 mM, PhAc 10 mM): −; Pax-8 mRNA ([6]; KAT-10, high: NaB 1.0 mM): +"

# — patent US7029879B1, “Iodine uptake restoration in thyroid cancer” (University of Kentucky Research Foundation, priority 1999, dated 2006)
